Assay results reported in patent publication US20210155715A1, “USE OF TRYPTOPHAN DERIVATIVES AND L-METHIONINE FOR PROTEIN FORMULATION” (Genentech, Inc., priority 2018, published 2021).

How the values were obtained:
[1] = AAPH chemical oxidation stress of mAb1/mAb2, LC-MS peptide mapping; assay type: physicochemical; conditions: 0.3 mM NAT
Excerpt: Antibodies were subjected to AAPH stress followed by peptide mapping to identify the CDR and Fc residues that were sensitive to oxidation (Dion et al., manuscript in preparation). […] If a residue oxidized by >5% relative to the control, it was deemed sensitive and monitored throughout the course of the experiments. […] In brief, samples were denatured, reduced, carboxylmethylated and subjected to trypsin digestion. Peptides were separated on an Acquity UPLC Peptide CSH C18 column using a water/acetonitrile/formic acid gradient on a Waters Acquity H-Class UHPLC coupled to a Thermo Q Exactive Plus high-resolution mass spectrometer. Data was processed using Thermo Scientific PepFinder™ and Xcalibur™ software. Integration was performed on extracted ion chromatograms of monoisotopic m/z using the most abundant charge state(s) for the native and oxidized peptides. The percent oxidation was calculated by dividing the peak area of the oxidized peptides by the summed peak area of the native and oxidized peptides. The major tryptophan degradation products (+16 and +32, in addition to +4, +20, and +48 for highly oxidized sites) were summed and used to calculate tryptophan oxidation. Only methionine sulfoxide (M+16) was used to calculate methionine oxidation, as methionine sulfone (M+32) was not observed under these conditions. […]

[2] = target: T1, neurokinin-1 (NK-1) receptor (Homo sapiens, UniProt P25103); assay: Binding to the NK-1 receptor in U373MG human astrocytoma cells; conditions: room temperature
T1 construct: U373MG human astrocytoma cells which endogenously express the receptor; endogenous in cells; host or cells: U373MG human astrocytoma cells
Method: The activity of NAT was assessed in binding, cellular and nuclear receptor functional and tissue bioassays. Binding to the neurokinin-1 (NK-1) receptor was assessed in U373MG human astrocytoma cells which endogenously express the receptor (Eistetter et al. (1992) Functional characterization of Neurokinin-1 receptors on human U373MG astrocytoma cells. Glia 6(2):89-95; Heuillet et al. (1993) J. Neurochem 60(3):868-876), and compared to the reference agonist [Sar^9, Met(O2)^11]-SP or to the reference antagonist L 733,060. NAT or the reference compounds were incubated with U373MG cells at room temperature; all concentrations were assayed in duplicate.

[3] = Light exposure stress (high intensity UV) of mAb1/mAb2, LC-MS peptide mapping; assay type: physicochemical; conditions: 5 mM L-Methionine
Excerpt: Antibodies were subjected to AAPH stress followed by peptide mapping to identify the CDR and Fc residues that were sensitive to oxidation (Dion et al., manuscript in preparation). Kabat numbering was used to identify variable fragment (Fv) residues, while EU nomenclature (Edelman et al. (1969) Proc Natl Acad Sci USA 63(1):78-85) was used to identify Fc residues. If a residue oxidized by >5% relative to the control, it was deemed sensitive and monitored throughout the course of the experiments. Peptide mapping and analysis information was as reported in Dion et al. (manuscript in preparation). In brief, samples were denatured, reduced, carboxylmethylated and subjected to trypsin digestion. […] The percent oxidation was calculated by dividing the peak area of the oxidized peptides by the summed peak area of the native and oxidized peptides. […]
Proteins (10 mg/mL) were exposed to light stress with a high intensity UV component (300 kilolux-hours visible light and 50 W·h/m^2 of near UV (320-400 nm) light over a 6-hour period) at various NAT concentrations (0-1 mM NAT) to determine the efficacy of NAT as an antioxidant against photo-oxidation (FIGS. 3A-B). […] Residues that were determined to be insensitive to light oxidation under antioxidant-free conditions remained insensitive to light when NAT was added to the formulation under the tested conditions.

T1 sequence (P25103 whole entry): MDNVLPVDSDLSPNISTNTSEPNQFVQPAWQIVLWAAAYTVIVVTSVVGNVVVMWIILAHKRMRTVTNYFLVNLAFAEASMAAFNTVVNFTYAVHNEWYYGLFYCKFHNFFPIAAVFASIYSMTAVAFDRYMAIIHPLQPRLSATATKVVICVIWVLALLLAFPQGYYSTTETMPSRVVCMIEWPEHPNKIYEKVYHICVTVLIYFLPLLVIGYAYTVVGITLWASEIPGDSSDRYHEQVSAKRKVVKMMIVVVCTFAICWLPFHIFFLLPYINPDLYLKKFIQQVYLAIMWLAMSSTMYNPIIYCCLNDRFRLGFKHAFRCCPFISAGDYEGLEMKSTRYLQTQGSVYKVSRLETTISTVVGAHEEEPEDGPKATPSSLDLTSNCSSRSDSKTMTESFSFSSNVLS

## CC(=O)NC(Cc1c[nH]c2ccccc12)C(=O)O (racemic) [NAT, N-acetyl-DL-tryptophan]
[1]
  oxidation of CDR and Fv tryptophan residues: < 10%
[2]
  IC50 for agonist binding to the NK-1 receptor: could not be calculated
  IC50 for antagonist binding to the NK-1 receptor: could not be calculated

## CSCC[C@H](N)C(=O)O [L-Methionine, L-methionine]
[3]; alone or with 0.3 mM NAT, UV light
  impact on oxidation of CDR and Fv residues: no beneficial impact
[3]; mAb1 and mAb2
  UV light-induced Fc methionine oxidation: improved
